Data as given in patent US8278480B2, “Salts, aqueous liquid compositions containing salts of S-(+)-abscisic acid and methods of their preparation” (Valent BioSciences Corporation, priority 2008, dated 2012).
“And” between values parts separate entries of the source, which are not always exact repeats. Equal values may be shown once. Where a name gives a salt, the structure may show the parent alone.

Key:
[1] = test system: tomato leaf transpiration; assay: Tomato leaf transpiration inhibition after foliar spray (LI-1600 porometer); type: in vivo, Tomato (variety: Rutgers); conditions: for Transpiration rate (% of control), 1 day after treatment: day 1; for Transpiration rate (% of control), 2 days after treatment: day 2; for Transpiration rate (% of control), 3 days after treatment: day 3; for Transpiration rate (% of control), 4 days after treatment: day 4; for Transpiration rate (% of control), 7 days after treatment: day 7; for ABA dose to achieve 50% inhibition of transpiration: from linear regression of 3-day average transpiration rate on log dose; for Transpiration rate (% of control), 9 days after treatment: day 9
Description: (§1) Preparation of plant specimens for use in the treatment studies of the EXAMPLES that follow was carried out as follows. Tomato (variety: Rutgers) seeds were sown in an 18-cell flat filled with Promix PGX (available from Premier Horticulture Inc., Quakertown Pa.) and grown for 3 weeks to allow for germination and initial growth. Plants were then transplanted into pots (18 cm in diameter and 18 cm in height), filled with Promix BX (available from Premier Horticulture Inc., Quakertown Pa.), and grown for one or two more weeks before treatment, depending on temperature and available light. Plants received daily irrigation and weekly fertilizer (1 g/L all purpose fertilizer 20-20-20, available from The Scotts Company, Marysville, Ohio).
(§2) All treatment solutions were made up with distilled water. The (S)-(+)-abscisic acid (95% active ingredient) is available from Lomon BioTechnology Co., Ltd. (Shichuan, China). The prior art aqueous solution composition of the ammonium salt of (S)-(+)-abscisic acid as prepared in Example 11 above was used as a positive treatment control for most of the studies.
(§3) All experiments were conducted using a randomized complete block experimental design. Solutions of (S)-(+)-abscisic acid and blank treatments (plain water) were applied by spray to the aerial parts of the tomato plants at the rate of 24 mL per 6 plants. Plants were then placed in a transparent chamber with humidity controlled within the range of 40 to 60% relative humidity. Leaf transpiration rates were measured at 1, 2, 3, 4 and 7 days after treatment. Measurements were conducted using a LI-1600 Steady State Porometer (LI-Cor, Lincoln, Nebr.). Each day the transpiration rate of the plants of each treatment group was normalized to a percentage of the transpiration rate of untreated plants (plants sprayed with water only) in order to control for day-to-day variability in plant status caused by changes of environmental conditions such as light intensity and temperature. Data for each plant was also averaged over a 3-day period to balance the short term and long term effect of (S)-(+)-abscisic acid on tomato leaf transpiration as well as to reduce experimental variability.
The regression equation of each (S)-(+)-abscisic acid salt as well as abscisic acid concentrations for 50% inhibition of transpiration were calculated. The relative potency of two ABA salts is the reciprocal of the ratio of (S)-(+)-abscisic acid concentration required for 50% transpiration inhibition for each composition.

[2] = test system: tomato shoot fresh weight; assay: Tomato shoot fresh weight 7 days after treatment (growth suppression); type: in vivo, Tomato (variety: Rutgers); conditions: foliar spray
Description: as §1, §2, §3
In this experiment, the fresh weights of the aerial parts of the tomato plants were also measured at the end of the experiment, 7 days after treatments were applied, in order to assess the relative growth suppressing activity of the compositions.

tomato plants = assay: Phytotoxicity observed on treated tomato plants; type: in vivo, Tomato (variety: Rutgers)
Description: as §3, with “variability. It is important to note that no phytotoxicity was observed on any of the plants treated with the compositions of the present invention.” for “variability.”

tomato plant height = assay: Tomato plant height 7 days after treatment (growth suppression); type: in vivo, Tomato (variety: Rutgers); conditions: foliar spray
Description: as §1, §2
as §3, with “variability. It is important to note that no phytotoxicity was observed on any of the plants treated with the compositions of the present invention.” for “variability.”
In this experiment, the fresh weights of the aerial parts of the tomato plants and their heights were also measured at the end of the experiment, 7 days after treatments were applied, in order to assess the relative growth suppressing activity of the compositions.

[3] = cited from earlier work
[4] = (S)-(+)-abscisic acid dose 0.3 mg, foliar spray
[5] = (S)-(+)-abscisic acid dose 1 mg, foliar spray
[6] = (S)-(+)-abscisic acid dose 3 mg, foliar spray
[7] = (S)-(+)-abscisic acid dose 10 mg, foliar spray
[8] = foliar spray, 250 ppm (S)-(+)-abscisic acid (1 mg), additives as in label
[9] = reciprocal of ratio of doses for 50% transpiration inhibition
[10] = 75 ppm (0.3 mg) (S)-(+)-abscisic acid
[11] = 250 ppm (1 mg) (S)-(+)-abscisic acid, additives as in label
[12] = 750 ppm (3 mg) (S)-(+)-abscisic acid
[13] = 2500 ppm (10 mg) (S)-(+)-abscisic acid
[14] = tomato plants after foliar spray

Structure (SMILES) | Transpiration rate (% of control), Average of 3 days after treatment [1, 4] | Transpiration rate (% of control), Average of 3 days after treatment [1, 5] | Transpiration rate (% of control), Average of 3 days after treatment [1, 6] | Transpiration rate (% of control), Average of 3 days after treatment [1, 7] | Transpiration rate (% of control), 7-Day Average [1, 8] | Transpiration rate (% of control), 1 day after treatment [1, 8] | Transpiration rate (% of control), 2 days after treatment [1, 8] | Transpiration rate (% of control), 3 days after treatment [1, 8] | Transpiration rate (% of control), 4 days after treatment [1, 8] | Transpiration rate (% of control), 7 days after treatment [1, 8] | ABA dose to achieve 50% inhibition of transpiration [1] | Relative potency compared to the ammonium salt composition of Comparative Example 11 [1, 9] | Fresh weight (g) 7 days after treatment [2, 10] [g] | Fresh weight (g) 7 days after treatment [2, 11] [g] | Fresh weight (g) 7 days after treatment [2, 12] [g] | Fresh weight (g) 7 days after treatment [2, 13] [g] | Phytotoxicity (tomato plants; [14]) | Transpiration rate (% of control), 9-Day Average [1, 8] | Transpiration rate (% of control), 9 days after treatment [1, 8] | further results
CC1=CC(=O)CC(C)(C)[C@@]1(O)/C=C/C(C)=C\C(=O)[O-].[Rb+] [Example 1, Rubidium Salt of (S)-(+)-Abscisic Acid] | 77 % of control | 67 % of control | 54 % of control | 39 % of control | 75.9 % of control | 55.8 % of control | 68.0 % of control | 76.5 % of control | 88.2 % of control | 91.0 % of control | 4.05 mg | 2.4 times | 18.6 | 18.1 | 17.2 | 16.4 | without producing phytotoxicity | – | – | –
CC1=CC(=O)CC(C)(C)[C@@]1(O)/C=C/C(C)=C\C(=O)[O-].[Cs+] [Example 2, Cesium Salt of (S)-(+)-Abscisic Acid] | 72 % of control | 57 % of control | 47 % of control | 37 % of control | 67.8 % of control | 47.1 % of control | 59.0 % of control | 63.9 % of control | 77.8 % of control | 91.1 % of control | 2.41 mg | 3.2 times and 2.8 times | 16.2 | 15.3 | 14.7 | 11.3 | without producing phytotoxicity | – | – | –
CC1=CC(=O)CC(C)(C)[C@@]1(O)/C=C/C(C)=C\C(=O)[O-].CCCC[N+](CCCC)(CCCC)CCCC [Example 4, Tetrabutylammonium Salt of (S)-(+)-Abscisic Acid] | 84 % of control and 80 % of control | 72 % of control and 61 % of control | 56 % of control and 47 % of control | 38 % of control and 29 % of control | 70.9 % of control | 63.4 % of control and 55.1 % of control | 73.9 % of control and 61.0 % of control | 77.8 % of control and 68.3 % of control | 79.3 % of control and 77.6 % of control | 89.2 % of control and 92.4 % of control | 4.35 mg and 2.33 mg | – | 15.3 | 14.8 | 12.5 | 11.4 | without producing phytotoxicity | 79.7 % of control | 94.6 % of control | Relative potency compared to the tributylamine salt composition of Comparative Example 14 [1, 9]: 1.9 times
CC1=CC(=O)CC(C)(C)[C@@]1(O)/C=C/C(C)=C\C(=O)[O-].C[N+](C)(C)CCO [Example 5, Choline Salt of (S)-(+)-abscisic Acid] | 78 % of control | 63 % of control | 53 % of control | 41 % of control | 72.5 % of control | 52.3 % of control | 63.7 % of control | 73.8 % of control | 79.0 % of control | 93.4 % of control | 4.02 mg | 2.6 times and 4.2 times | 18.2 | 17.5 | 16.8 | 16.0 | – | – | – | Phytotoxicity (tomato plants; in vivo): without producing phytotoxicity
CC1=CC(=O)CC(C)(C)[C@@]1(O)/C=C/C(C)=C\C(=O)O [Example 11, Ammonium Salt of (S)-(+)-Abscisic Acid, reference compound] | 82 % of control and 80 % of control and 77 % of control and 95 % of control and 90 % of control and 81 % of control and 88 % of control | 72 % of control and 69 % of control and 65 % of control and 78 % of control and 70 % of control and 77 % of control and 71 % of control | 60 % of control and 58 % of control and 55 % of control and 67 % of control and 59 % of control and 62 % of control and 57 % of control | 50 % of control and 48 % of control and 44 % of control and 53 % of control and 51 % of control and 52 % of control and 55 % of control and 49 % of control | – | – | – | – | – | – | – | – | – | – | – | – | – | 87.3 % of control | 100.8 % of control | Transpiration rate (% of control), 4 Day Average ([1]; foliar spray, 250 ppm (S)-(+)-abscisic acid (1 mg), additives as in label, 4-day average): 75.4 % of control; Plant height (cm) 7 days after treatment (tomato plant height; [10]): 19.9 cm; Plant height (cm) 7 days after treatment (tomato plant height; [11]): 19.8 cm and 32.1 cm; Plant height (cm) 7 days after treatment (tomato plant height; [12]): 18.6 cm; Plant height (cm) 7 days after treatment (tomato plant height; [13]): 18.6 cm
CC1=CC(=O)CC(C)(C)[C@@]1(O)/C=C/C(C)=C\C(=O)O [abscisic acid, 2-cis-,4-trans-(S)-(+)-abscisic acid] | – | – | – | – | – | – | – | – | – | – | – | – | – | – | – | – | – | – | – | Solubility in propylene glycol ([3]; propylene glycol): poorly soluble; Solubility in water (highest concentration achievable) ([3]; pure water, room / ordinary ambient temperature): ≤ 3000 ppm
